# Results published in US9738634B2, “Heterocyclic amide compound and herbicide” (SYNGENTA PARTICIPATIONS AG, priority 2013, dated 2017).
# How the values were obtained:
# Type in all cases: in vivo
# bulrush [1] = experiment: Test Example 1: weedkilling efficacy, preemergent weed treatment in the submerged state; B: bulrush
# Summary of the method: (§1)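 Visual scores against set criteria were taken 3 weeks after treatment. Compounds, as diluted emulsions at specified g/ha, went onto the water surface of 4 cm-flooded alluvial soil pots on the day weeds were sown and 2.5-leaf rice was transplanted; greenhouse held 25–30 °C.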
# oval-leafed pondweed [2] = experiment: Test Example 1: weedkilling efficacy, preemergent weed treatment in the submerged state; C: oval-leafed pondweed
# Summary of the method: as §1
# chickweed = experiment: Test Example 3: weedkilling efficacy through soil treatment; N: chickweed; details: soil treatment
# Summary of the method: (§2)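 Crop and weed responses were judged three weeks after a uniform surface spray of the water-diluted emulsion at the given g/ha rate. Seeds sat beneath about 1.5 cm of sterilized diluvial soil, and boxes stood in a greenhouse at 25 to 30° C.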
# catchweed = experiment: Test Example 3: weedkilling efficacy through soil treatment; O: catchweed; details: soil treatment
# Summary of the method: as §2
# transplanted rice = experiment: Test Example 1: preemergent weed treatment in the submerged state, effect on crop; a: transplanted rice
# Summary of the method: as §1
# Italian ryegrass = experiment: Test Example 3: weedkilling efficacy through soil treatment; I: Italian ryegrass; details: soil treatment
# Summary of the method: as §2
# beet = experiment: Test Example 3: soil treatment, effect on crop; f: beet; details: soil treatment
# Summary of the method: as §2
# corn = experiment: Test Example 3: soil treatment, effect on crop; c: corn; details: soil treatment
# Summary of the method: as §2
# barnyard grass [3] = experiment: Test Example 2: weedkilling efficacy, growth period weed treatment in the submerged state; A: barnyard grass
# Summary of the method: (§3)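 Barnyard grass, bulrush and oval-leafed pondweed sown in alluvial soil under 4 cm flooding, greenhouse 25 to 30° C. At 1-2 leaf stage, water-diluted emulsion applied to the water surface at stated g/ha dosages; effects scored 3 weeks later.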
# common wind-grass = experiment: Test Example 3: weedkilling efficacy through soil treatment; J: common wind-grass; details: soil treatment
# Summary of the method: as §2
# oval-leafed pondweed [4] = experiment: Test Example 2: weedkilling efficacy, growth period weed treatment in the submerged state; C: oval-leafed pondweed
# Summary of the method: as §3
# fig-leafed goosefoot = experiment: Test Example 3: weedkilling efficacy through soil treatment; M: fig-leafed goosefoot; details: soil treatment, treatment dosage 320 g/ha
# Summary of the method: as §2
# Indian mallow = experiment: Test Example 3: weedkilling efficacy through soil treatment; K: Indian mallow; details: soil treatment
# Summary of the method: as §2
# bulrush [5] = experiment: Test Example 2: weedkilling efficacy, growth period weed treatment in the submerged state; B: bulrush
# Summary of the method: as §3
# barnyard grass [6] = experiment: Test Example 3: weedkilling efficacy through soil treatment; F: barnyard grass; details: soil treatment
# Summary of the method: as §2
# barnyard grass [7] = experiment: Test Example 1: weedkilling efficacy, preemergent weed treatment in the submerged state; A: barnyard grass
# Summary of the method: as §1
# directly sown rice = experiment: Test Example 3: soil treatment, effect on crop; b: directly sown rice; details: soil treatment
# Summary of the method: as §2
# soybean = experiment: Test Example 3: soil treatment, effect on crop; d: soybean; details: soil treatment
# Summary of the method: as §2
# black-grass = experiment: Test Example 3: weedkilling efficacy through soil treatment; H: black-grass; details: soil treatment
# Summary of the method: as §2
# rapeseed = experiment: Test Example 3: soil treatment, effect on crop; g: rapeseed; details: soil treatment
# Summary of the method: as §2
# wheat = experiment: Test Example 3: soil treatment, effect on crop; e: wheat; details: soil treatment
# Summary of the method: as §2
# birds-eye speedwell = experiment: Test Example 3: weedkilling efficacy through soil treatment; p: birds-eye speedwell; details: soil treatment
# Summary of the method: as §2
# redroot pigweed = experiment: Test Example 3: weedkilling efficacy through soil treatment; L: redroot pigweed; details: soil treatment
# Summary of the method: as §2
# green foxtail = experiment: Test Example 3: weedkilling efficacy through soil treatment; E: green foxtail; details: soil treatment
# Summary of the method: as §2
# wild oat = experiment: Test Example 3: weedkilling efficacy through soil treatment; G: wild oat; details: soil treatment
# Summary of the method: as §2
# crabgrass = experiment: Test Example 3: weedkilling efficacy through soil treatment; D: crabgrass; details: soil treatment
# Summary of the method: as §2
structure (smiles),measurement,setting,value
CC(C)(C(=O)Nc1nncs1)N1COCN(c2ccccc2)C1=O [A-1-12],"B: bulrush, weed kill grade",bulrush [1]; treatment dosage 320 g/ha,"5 (weed kill ratio 90% or more, (practically complete withering))"
same,"C: oval-leafed pondweed, weed kill grade",oval-leafed pondweed [2]; treatment dosage 320 g/ha,"4 (weed kill ratio 70% or more, less than 90%)"
same,"N: chickweed, weedkilling efficacy grade",chickweed; treatment dosage 320 g/ha,"3 (weed kill ratio 40% or more, less than 70%)"
same,"O: catchweed, weedkilling efficacy grade",catchweed; treatment dosage 320 g/ha,0 (weed kill ratio 5% or less (practically no effect))
same,"a: transplanted rice, effect on crop grade",transplanted rice; treatment dosage 320 g/ha,0 (weed kill ratio 5% or less (practically no effect))
same,"I: Italian ryegrass, weedkilling efficacy grade",Italian ryegrass; treatment dosage 320 g/ha,"5 (weed kill ratio 90% or more, (practically complete withering))"
same,"f: beet, effect on crop grade",beet; treatment dosage 320 g/ha,"2 (weed kill ratio 20% or more, less than 40%)"
same,"c: corn, effect on crop grade",corn; treatment dosage 320 g/ha,0 (weed kill ratio 5% or less (practically no effect))
same,A (barnyard grass) weedkilling efficacy grade,barnyard grass [3]; treatment dosage 320 g/ha,"1 (weed kill ratio 5% or more, less than 20%)"
same,"J: common wind-grass, weedkilling efficacy grade",common wind-grass; treatment dosage 320 g/ha,"5 (weed kill ratio 90% or more, (practically complete withering))"
same,C (oval-leafed pondweed) weedkilling efficacy grade,oval-leafed pondweed [4]; treatment dosage 320 g/ha,"3 (weed kill ratio 40% or more, less than 70%)"
same,"M: fig-leafed goosefoot, weedkilling efficacy grade",fig-leafed goosefoot,"4 (weed kill ratio 70% or more, less than 90%)"
same,"K: Indian mallow, weedkilling efficacy grade",Indian mallow; treatment dosage 320 g/ha,0 (weed kill ratio 5% or less (practically no effect))
same,B (bulrush) weedkilling efficacy grade,bulrush [5]; treatment dosage 320 g/ha,"5 (weed kill ratio 90% or more, (practically complete withering))"
same,"F: barnyard grass, weedkilling efficacy grade",barnyard grass [6]; treatment dosage 320 g/ha,"3 (weed kill ratio 40% or more, less than 70%)"
same,"A: barnyard grass, weed kill grade",barnyard grass [7]; treatment dosage 320 g/ha,"5 (weed kill ratio 90% or more, (practically complete withering))"
same,"b: directly sown rice, effect on crop grade",directly sown rice; treatment dosage 320 g/ha,"5 (weed kill ratio 90% or more, (practically complete withering))"
same,"d: soybean, effect on crop grade",soybean; treatment dosage 320 g/ha,"4 (weed kill ratio 70% or more, less than 90%)"
same,"H: black-grass, weedkilling efficacy grade",black-grass; treatment dosage 320 g/ha,"5 (weed kill ratio 90% or more, (practically complete withering))"
same,"g: rapeseed, effect on crop grade",rapeseed; treatment dosage 320 g/ha,0 (weed kill ratio 5% or less (practically no effect))
same,"e: wheat, effect on crop grade",wheat; treatment dosage 320 g/ha,0 (weed kill ratio 5% or less (practically no effect))
same,"P: birds-eye speedwell, weedkilling efficacy grade",birds-eye speedwell; treatment dosage 320 g/ha,"3 (weed kill ratio 40% or more, less than 70%)"
same,"L: redroot pigweed, weedkilling efficacy grade",redroot pigweed; treatment dosage 320 g/ha,0 (weed kill ratio 5% or less (practically no effect))
same,"E: green foxtail, weedkilling efficacy grade",green foxtail; treatment dosage 320 g/ha,"5 (weed kill ratio 90% or more, (practically complete withering))"
same,"G: wild oat, weedkilling efficacy grade",wild oat; treatment dosage 320 g/ha,"3 (weed kill ratio 40% or more, less than 70%)"
CC(C)(C(=O)Nc1cc(Br)cc(F)n1)N1COCN(c2ccccc2)C1=O [A-2-19],"B: bulrush, weed kill grade",bulrush [1]; treatment dosage 320 g/ha,"5 (weed kill ratio 90% or more, (practically complete withering))"
same,"C: oval-leafed pondweed, weed kill grade",oval-leafed pondweed [2]; treatment dosage 320 g/ha,"5 (weed kill ratio 90% or more, (practically complete withering))"
same,"N: chickweed, weedkilling efficacy grade",chickweed; treatment dosage 320 g/ha,"5 (weed kill ratio 90% or more, (practically complete withering))"
same,"O: catchweed, weedkilling efficacy grade",catchweed; treatment dosage 320 g/ha,"4 (weed kill ratio 70% or more, less than 90%)"
same,"a: transplanted rice, effect on crop grade",transplanted rice; treatment dosage 320 g/ha,"3 (weed kill ratio 40% or more, less than 70%)"
same,"I: Italian ryegrass, weedkilling efficacy grade",Italian ryegrass; treatment dosage 320 g/ha,"5 (weed kill ratio 90% or more, (practically complete withering))"
same,"f: beet, effect on crop grade",beet; treatment dosage 320 g/ha,"4 (weed kill ratio 70% or more, less than 90%)"
same,"c: corn, effect on crop grade",corn; treatment dosage 320 g/ha,"2 (weed kill ratio 20% or more, less than 40%)"
same,A (barnyard grass) weedkilling efficacy grade,barnyard grass [3]; treatment dosage 320 g/ha,"5 (weed kill ratio 90% or more, (practically complete withering))"
same,"J: common wind-grass, weedkilling efficacy grade",common wind-grass; treatment dosage 320 g/ha,"5 (weed kill ratio 90% or more, (practically complete withering))"
same,C (oval-leafed pondweed) weedkilling efficacy grade,oval-leafed pondweed [4]; treatment dosage 320 g/ha,"5 (weed kill ratio 90% or more, (practically complete withering))"
same,"M: fig-leafed goosefoot, weedkilling efficacy grade",fig-leafed goosefoot,"4 (weed kill ratio 70% or more, less than 90%)"
same,"K: Indian mallow, weedkilling efficacy grade",Indian mallow; treatment dosage 320 g/ha,0 (weed kill ratio 5% or less (practically no effect))
same,B (bulrush) weedkilling efficacy grade,bulrush [5]; treatment dosage 320 g/ha,"5 (weed kill ratio 90% or more, (practically complete withering))"
same,"F: barnyard grass, weedkilling efficacy grade",barnyard grass [6]; treatment dosage 320 g/ha,"5 (weed kill ratio 90% or more, (practically complete withering))"
same,"A: barnyard grass, weed kill grade",barnyard grass [7]; treatment dosage 320 g/ha,"5 (weed kill ratio 90% or more, (practically complete withering))"
same,"b: directly sown rice, effect on crop grade",directly sown rice; treatment dosage 320 g/ha,0 (weed kill ratio 5% or less (practically no effect))
same,"D: crabgrass, weedkilling efficacy grade",crabgrass; treatment dosage 320 g/ha,"5 (weed kill ratio 90% or more, (practically complete withering))"
same,"H: black-grass, weedkilling efficacy grade",black-grass; treatment dosage 320 g/ha,"5 (weed kill ratio 90% or more, (practically complete withering))"
same,"g: rapeseed, effect on crop grade",rapeseed; treatment dosage 320 g/ha,"5 (weed kill ratio 90% or more, (practically complete withering))"
same,"e: wheat, effect on crop grade",wheat; treatment dosage 320 g/ha,"2 (weed kill ratio 20% or more, less than 40%)"
same,"P: birds-eye speedwell, weedkilling efficacy grade",birds-eye speedwell; treatment dosage 320 g/ha,"4 (weed kill ratio 70% or more, less than 90%)"
same,"L: redroot pigweed, weedkilling efficacy grade",redroot pigweed; treatment dosage 320 g/ha,0 (weed kill ratio 5% or less (practically no effect))
same,"E: green foxtail, weedkilling efficacy grade",green foxtail; treatment dosage 320 g/ha,"5 (weed kill ratio 90% or more, (practically complete withering))"
same,"G: wild oat, weedkilling efficacy grade",wild oat; treatment dosage 320 g/ha,"5 (weed kill ratio 90% or more, (practically complete withering))"
CC(C)(C(=O)Nc1cccc(CF)n1)N1COCN(c2ccccc2)C1=O [A-2-39],"B: bulrush, weed kill grade",bulrush [1]; treatment dosage 315 g/ha,"5 (weed kill ratio 90% or more, (practically complete withering))"
same,"C: oval-leafed pondweed, weed kill grade",oval-leafed pondweed [2]; treatment dosage 315 g/ha,"5 (weed kill ratio 90% or more, (practically complete withering))"
same,"N: chickweed, weedkilling efficacy grade",chickweed; treatment dosage 315 g/ha,"2 (weed kill ratio 20% or more, less than 40%)"
same,"O: catchweed, weedkilling efficacy grade",catchweed; treatment dosage 315 g/ha,"5 (weed kill ratio 90% or more, (practically complete withering))"
same,"a: transplanted rice, effect on crop grade",transplanted rice; treatment dosage 315 g/ha,"1 (weed kill ratio 5% or more, less than 20%)"
same,"I: Italian ryegrass, weedkilling efficacy grade",Italian ryegrass; treatment dosage 315 g/ha,"5 (weed kill ratio 90% or more, (practically complete withering))"
same,"f: beet, effect on crop grade",beet; treatment dosage 315 g/ha,"3 (weed kill ratio 40% or more, less than 70%)"
same,"c: corn, effect on crop grade",corn; treatment dosage 315 g/ha,0 (weed kill ratio 5% or less (practically no effect))
same,A (barnyard grass) weedkilling efficacy grade,barnyard grass [3]; treatment dosage 315 g/ha,"4 (weed kill ratio 70% or more, less than 90%)"
same,"J: common wind-grass, weedkilling efficacy grade",common wind-grass; treatment dosage 315 g/ha,"5 (weed kill ratio 90% or more, (practically complete withering))"
same,C (oval-leafed pondweed) weedkilling efficacy grade,oval-leafed pondweed [4]; treatment dosage 315 g/ha,"4 (weed kill ratio 70% or more, less than 90%)"
same,"K: Indian mallow, weedkilling efficacy grade",Indian mallow; treatment dosage 315 g/ha,0 (weed kill ratio 5% or less (practically no effect))
same,B (bulrush) weedkilling efficacy grade,bulrush [5]; treatment dosage 315 g/ha,"5 (weed kill ratio 90% or more, (practically complete withering))"
same,"F: barnyard grass, weedkilling efficacy grade",barnyard grass [6]; treatment dosage 315 g/ha,"5 (weed kill ratio 90% or more, (practically complete withering))"
same,"A: barnyard grass, weed kill grade",barnyard grass [7]; treatment dosage 315 g/ha,"5 (weed kill ratio 90% or more, (practically complete withering))"
same,"b: directly sown rice, effect on crop grade",directly sown rice; treatment dosage 315 g/ha,"4 (weed kill ratio 70% or more, less than 90%)"
same,"D: crabgrass, weedkilling efficacy grade",crabgrass; treatment dosage 315 g/ha,"5 (weed kill ratio 90% or more, (practically complete withering))"
same,"d: soybean, effect on crop grade",soybean; treatment dosage 315 g/ha,0 (weed kill ratio 5% or less (practically no effect))
same,"H: black-grass, weedkilling efficacy grade",black-grass; treatment dosage 315 g/ha,"5 (weed kill ratio 90% or more, (practically complete withering))"
same,"g: rapeseed, effect on crop grade",rapeseed; treatment dosage 315 g/ha,"2 (weed kill ratio 20% or more, less than 40%)"
same,"e: wheat, effect on crop grade",wheat; treatment dosage 315 g/ha,"1 (weed kill ratio 5% or more, less than 20%)"
same,"P: birds-eye speedwell, weedkilling efficacy grade",birds-eye speedwell; treatment dosage 315 g/ha,"5 (weed kill ratio 90% or more, (practically complete withering))"
same,"L: redroot pigweed, weedkilling efficacy grade",redroot pigweed; treatment dosage 315 g/ha,0 (weed kill ratio 5% or less (practically no effect))
same,"E: green foxtail, weedkilling efficacy grade",green foxtail; treatment dosage 315 g/ha,"5 (weed kill ratio 90% or more, (practically complete withering))"
same,"G: wild oat, weedkilling efficacy grade",wild oat; treatment dosage 315 g/ha,"4 (weed kill ratio 70% or more, less than 90%)"
